Reference: patent US11472798B2 (Mission Therapeutics Limited, priority 2014, dated 2022)
pIC50: −log10 of the molar value.

Molecular target: T1, UCHL1 (Homo sapiens, UniProt P09936)
T1 construct: made in house; host or cells: HEK293T
T1 sequence (P09936 1-223): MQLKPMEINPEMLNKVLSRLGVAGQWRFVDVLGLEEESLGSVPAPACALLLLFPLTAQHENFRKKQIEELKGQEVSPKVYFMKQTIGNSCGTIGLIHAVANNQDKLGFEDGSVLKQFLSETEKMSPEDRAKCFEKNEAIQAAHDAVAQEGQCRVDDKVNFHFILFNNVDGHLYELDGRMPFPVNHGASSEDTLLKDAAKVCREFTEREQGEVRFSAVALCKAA
Assay: UCHL1 biochemical IC50 assay (fluorescence polarisation)
Details: 30 min enzyme/compound pre-incubation at room temp, read after 2 hr incubation, read-out: Activity range (UCHL1 biochemical IC50 assay)
In short: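 FLAG-UCHL1 purified from transfected HEK293T cells was preincubated 30 min at room temperature with compound (8 points, 100–0.03 μM final) in Tris pH 7.5 buffer with Tween 20, BSA and beta-mercaptoethanol. Reaction started with 50 nM TAMRA-peptide–ubiquitin isopeptide substrate; fluorescence polarisation (ex 540/em 590 nm) read at once and after 2 h.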

Compound	pIC50
N#Cc1ccc(-c2cnc(NC(=O)[C@H]3CCN(C#N)C3)s2)cc1F [Example 214, (S)-1-cyano-N-(5-(4-cyano-3-fluorophenyl)thiazol-2-yl)pyrrolidine-3-carboxamide]	> 6.00
N#CN1CC[C@H](C(=O)Nc2ncc(-c3cccc4cn[nH]c34)s2)C1 [Example 215, (S)-N-(5-(1H-indazol-7-yl)thiazol-2-yl)-1-cyanopyrrolidine-3-carboxamide]	> 6.00
N#CN1CC[C@H](C(=O)Nc2ncc(-c3cccc(-n4ccnc4)c3)s2)C1 [Example 216, (S)-N-(5-(3-(1H-imidazol-1-yl)phenyl)thiazol-2-yl)-1-cyanopyrrolidine-3-carboxamide]	> 6.00
CS(=O)(=O)Nc1ccc(-c2cnc(NC(=O)[C@H]3CCN(C#N)C3)s2)cc1 [Example 217, (S)-1-cyano-N-(5-(4-(methylsulfonamido)phenyl)thiazol-2-yl)pyrro1idine-3-carboxamide]	> 6.00
N#CN1CC[C@H](C(=O)Nc2ncc(-c3cccc(-n4cccn4)c3)s2)C1 [Example 218, (S)-N-(5-(3-(1H-pyrazol-1-yl)phenyl)thiazol-2-yl)-1-cyanopyrrolidine-3-carboxamide]	> 6.00
N#Cc1ccc(-c2cnc(NC(=O)[C@H]3CCN(C#N)C3)s2)cc1OC(F)(F)F [Example 219, (S)-1-cyano-N-(5-(4-cyano-3-(trifluoromethoxy)phenyl)thiazol-2-yl)pyrrolidine-3-carboxamide]	> 6.00
COc1cc(-c2cnc(NC(=O)[C@H]3CCN(C#N)C3)s2)ccc1C#N [Example 220, (S)-1-cyano-N-(5-(4-cyano-3-methoxyphenyl)thiazol-2-yl)pyrrolidine-3-carboxamide]	> 6.00
N#CN1CC[C@H](C(=O)Nc2ncc(-c3ccc(S(N)(=O)=O)cc3)s2)C1 [Example 221, (S)-1-cyano-N-(5-(4-sulfamoylphenyl)thiazol-2-yl)pyrrolidine-3-carboxamide]	> 6.00
N#CN1CC[C@H](C(=O)Nc2ncc(-c3ccc4cn[nH]c4c3)s2)C1 [Example 222, (S)-N-(5-(1H-indazol-6-yl)-2-yl)-1-cyanopyrrolidine-3-carboxamide]	> 6.00
N#CN1CC[C@H](C(=O)Nc2ncc(-c3ccc4[nH]ncc4c3)s2)C1 [Example 223, (S)-N-(5-(1H-indazol-5-yl)thiazol-2-yl)-1-cyanopyrrolidine-3-carboxamide]	> 6.00
CNC(=O)c1cccc(-c2cnc(NC(=O)[C@H]3CCN(C#N)C3)s2)n1 [Example 224, (S)-6-(2-(1-cyanopyrrolidine-3-carboxamido)thiazol-5-yl)-N-methylpicolinamide]	> 6.00
CCNC(=O)c1cccc(-c2cnc(NC(=O)[C@H]3CCN(C#N)C3)s2)n1 [Example 225, (S)-6-(2-(1-cyanopyrrolidine-3-carboxamido)thiazol-5-yl)-N-ethylpicolinamide]	> 6.00
Cn1ncc2cc(-c3cnc(NC(=O)[C@H]4CCN(C#N)C4)s3)ccc21 [Example 226, (S)-1-cyano-N-(5-(1-methyl-1H-indazol-5-yl)thiazol-2-yl)pyrrolidine-3-carboxamide]	> 6.00
COCCn1ncc2cc(-c3cnc(NC(=O)[C@H]4CCN(C#N)C4)s3)ccc21 [Example 227, (S)-1-cyano-N-(5-(1-(2-methoxyethyl)-1H-indazol-5-yl)thiazol-2-yl)pyrrolidine-3-carboxamide]	> 6.00
N#CN1CC[C@H](C(=O)Nc2ncc(-c3cccc4c3NC(=O)C4)s2)C1 [Example 228, (S)-1-cyano-N-(5-(2-oxoindolin-7-yl)thiazol-2-yl)pyrrolidine-3-carboxamide]	> 6.00
N#CN1CC[C@H](C(=O)Nc2ncc(-c3cccc4[nH]ncc34)s2)C1 [Example 230, (S)—N-(5-(1H-indazol-4-yl)thiazol-2-yl)-1-cyanopyrrolidine-3-carboxamide]	> 6.00
CNC(=O)c1cc(-c2cnc(NC(=O)[C@H]3CCN(C#N)C3)s2)ccc1F [Example 231, (S)-1-cyano-N-(5-(4-fluoro-3-(methylcarbamoyl)phenyl)thiazol-2-yl) pyrrolidine-3-carboxamide]	> 6.00
N#CN1CC[C@H](C(=O)Nc2ncc(-c3cccc(C(N)=O)c3)s2)C1 [Example 232, (S)-N-(5-(3-carbamoylphenyl)thiazol-2-yl)-1-cyanopyrrolidine-3-carboxamide]	> 6.00
CNC(=O)c1cccc(-c2cnc(NC(=O)[C@H]3CCN(C#N)C3)s2)c1 [Example 233, (S)-1-cyano-N-(5-(3-(methylcarbamoyl)phenyl)thiazol-2-yl)pyrrolidine-3-carboxamide]	> 6.00

Compound	pIC50
CCNC(=O)c1cccc(-c2cnc(NC(=O)[C@H]3CCN(C#N)C3)s2)c1 [Example 234, (S)-1-cyano-N-(5-(3-(ethylcarbamoyl)phenyl)thiazol-2-yl)pyrrolidine-3-carboxamide]	> 6.00
CN(C)C(=O)c1cccc(-c2cnc(NC(=O)[C@H]3CCN(C#N)C3)s2)c1 [Example 235, (S)-1-cyano-N-(5-(3-(dimethylcarbamoyl)phenyl)thiazol-2-yl)pyrrolidine-3-carboxamide]	> 6.00
N#CN1CC[C@H](C(=O)Nc2ncc(-c3ccc(F)c(C(N)=O)c3)s2)C1 [Example 236, (S)-N-(5-(3-carbamoyl-4-fluorophenyl)thiazol-2-yl)-1-cyanopyrrolidine-3-carboxamide]	> 6.00
N#CN1CC[C@H](C(=O)Nc2ncc(-c3ccc(Cl)c(C(N)=O)c3)s2)C1 [Example 237, (S)-N-(5-(3-carbamoyl-4-chlorophenyl)thiazol-2-yl)-1-cyanopyrrolidine-3-carboxamide]	> 6.00
CNC(=O)c1cc(-c2cnc(NC(=O)[C@H]3CCN(C#N)C3)s2)ccc1Cl [Example 238, (S)-N-(5-(4-chloro-3-(methylcarbamoyl)phenyl)thiazol-2-yl)-1-cyanopyrrolidine-3-carboxamide]	> 6.00
C#CCNC(=O)c1cc(-c2cnc(NC(=O)[C@H]3CCN(C#N)C3)s2)ccc1Cl [Example 239, (S)-N-(5-(4-chloro-3-(prop-2-yn-1-ylcarbarmoyl)phenyl)thiazol-2-yl)-1-cyanopyrrolidine-3-carboxamide]	> 6.00
CC(C)S(=O)(=O)N1CCn2nc(NC(=O)[C@H]3CCN(C#N)C3)cc2C1 [Example 240, (S)-1-cyano-N-(5-(isopropylsulfonyl)-4,5,6,7-tetrahydropyrazolo[1,5-a]pyrazin-2 yl)pyrrolidine-3-carboxamide]	> 6.00
N#CN1CC[C@H](C(=O)Nc2cc3n(n2)CCN(c2ccccc2)C3)C1 [Example 241, (S)-1-cyano-N-(5-phenyl-4,5,6,7-tetrahydropyrazolo[1,5-a]pyrazin-2-yl)pyrrolidine-3-carboxamide]	> 6.00
N#CN1CC[C@H](C(=O)Nc2cc3n(n2)CCN(Cc2ccccc2)C3)C1 [Example 242, (S)—N-(5-benzyl-4,5,6,7-tetrahydropyrazolo[1,5-a]pyrazin-2-yl)-1-cyanopyrrolidine-3-carboxamide]	> 6.00
COCCOc1cc(-n2cnc(NC(=O)[C@H]3CCN(C#N)C3)c2)ccc1C#N [Example 243, (S)-1-cyano-N-(1-(4-cyano-3-(2-methoxyethoxy)phenyl)-1H-imidazol-4-yl)pyrrolidine-3-carboxamide]	> 6.00
COCCOc1ccc(C#N)c(-n2cnc(NC(=O)[C@H]3CCN(C#N)C3)c2)c1 [Example 244, (S)-1-cyano-N-(1-(2-cyano-5-(2-methoxyethoxy)phenyl)-1H-imidazol-4-yl)pyrrolidine-3-carboxamide]	> 6.00
N#Cc1ccc(-n2cnc(NC(=O)[C@H]3CCN(C#N)C3)c2)cc1OCCCN1CCOCC1 [Example 245, (S)-1-cyano-N-(1-(4-cyano-3-(3-morpholinopropoxy)phenyl)-1H-imidazol-4-yl)pyrrolidine-3-carboxamide]	> 6.00
N#Cc1ccc(OCCCN2CCOCC2)cc1-n1cnc(NC(=O)[C@H]2CCN(C#N)C2)c1 [Example 246, (S)-1-cyano-N-(1-(2-cyano-5-(3-morpholinopropoxy)phenyl)-1H-imidazol-4-yl)pyrrolidine-3-carboxamide]	> 6.00
N#Cc1ccc(-n2cnc(NC(=O)[C@H]3CCN(C#N)C3)c2)cc1O[C@H]1CCOC1 [Example 247, (S)-1-cyano-N-(1-(4-cyano-3-(((S)-tetrahydrofuran-3-yl)oxy)phenyl)-1H-imidazol-4-yl)pyrrolidine-3-carboxamide]	> 6.00
N#Cc1ccc(O[C@H]2CCOC2)cc1-n1cnc(NC(=O)[C@H]2CCN(C#N)C2)c1 [Example 248, (S)-1-cyano-N-(1-(2-cyano-5-(((S)-tetrahydrofuran-3-yl)oxy)phenyl)-1H-imidazol-4-yl)pyrrolidine-3-carboxamide]	5.00 to 6.00
N#Cc1ccc(-n2cnc(NC(=O)[C@H]3CCN(C#N)C3)c2)cc1OC1COC1 [Example 249, (S)-1-cyano-N-(1-(4-cyano-3-(oxetan-3-yloxy)phenyl)-1H-imidazol-4-yl)pyrrolidine-3-carboxamide]	> 6.00
N#Cc1ccc(OC2COC2)cc1-n1cnc(NC(=O)[C@H]2CCN(C#N)C2)c1 [Example 250, (S)-1-cyano-N-(1-(2-cyano-5-(oxetan-3-yloxy)phenyl)-1H-imidazol-4-yl)pyrrolidine-3-carboxamide]	> 6.00
N#CN1CC[C@H](C(=O)Nc2cc(-c3ccnc4ccnn34)ccn2)C1 [Example 251, (S)-1-cyano-N-(4-(pyrazolo[1,5-a]pyrimidin-7-yl)pyridin-2-yl)pyrrolidine-3-carboxamide]	> 6.00
